Data as given in BindingDB's records for doi:10.1021/jm00101a032 (Pfizer, 1992).

Legend:
[1] = Effect on forskolin stimulated adenylate cyclase activity at 5-hydroxytryptamine 1A receptor of guinea pig hippocampus.
[2] = Binding affinity against 5-hydroxytryptamine 1A receptor
[3] = Effect on forskolin stimulated adenylate cyclase activity at 5-hydroxytryptamine 1A receptor of guinea pig hippocampus.; remark: listed apart in the source

| Structure (SMILES) | EC50 [1] [nM] | IC50 [2] [nM] | IC50 [3] [nM] |
| --- | --- | --- | --- |
| COc1ccc2[nH]cc(C[C@H]3CCCN3C)c2c1 [5-Methoxy-3-((R)-1-methyl-pyrrolidin-2-ylmethyl)-1H-indole] | 35 | 10 | – |
| COc1ccc2[nH]cc(C[C@@H]3CCCN3C)c2c1 [5-Methoxy-3-((S)-1-methyl-pyrrolidin-2-ylmethyl)-1H-indole] | – | – | 140 |
